Source: PubChem BioAssay (NCI)
Several values for one entry are separate records, joined by “and”; a condition that tells them apart may be missing. Equal entries are not always repeated.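 Each compound was tested at five concentrations against cells in 96-well plates for 48 hours. GI50 marks 50% less growth. TGI denotes the concentration required for complete inhibition of growth.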 Activity calls are given as the source filed them. Rule as the data show it: active = GI50 below about 0.43 µM; inactive = the rest.

Assays:
Assay in all cases: growth of human tumour cells (NCI), 48 h
OVCAR-4 ovarian = tested on: OVCAR-4 ovarian
MDA-MB-435 = tested on: MDA-MB-435
LOX IMVI melanoma = tested on: LOX IMVI melanoma
NCI-H226 lung = tested on: NCI-H226 lung
SK-MEL-5 melanoma = tested on: SK-MEL-5 melanoma
TK-10 renal = tested on: TK-10 renal

Compound	GI50 (OVCAR-4 ovarian)	TGI (OVCAR-4 ovarian)	GI50 (MDA-MB-435)	TGI (MDA-MB-435)	GI50 (LOX IMVI melanoma)	TGI (LOX IMVI melanoma)	GI50 (NCI-H226 lung)	TGI (NCI-H226 lung)	GI50 (SK-MEL-5 melanoma)	TGI (SK-MEL-5 melanoma)	GI50 (TK-10 renal)	TGI (TK-10 renal)	outcome (OVCAR-4 ovarian)
CC/C=C\C[C@@H](O)C/C=C1/C(=O)C=C[C@H]1C/C=C\CCCC(=O)OC	4.21 µM	16.9 µM	1.93 µM	5.86 µM	0.329 µM	1.51 µM	2.14 µM	5.04 µM	1.77 µM	3.25 µM	11.6 µM	24 µM	
COc1cc(C(=O)CBr)c(OC)cc1C				> 100 µM		> 100 µM		> 100 µM		> 100 µM		> 100 µM	
O=C1C(Cl)=C(NCCN2CCOCC2)C(=O)c2ncccc21	1.85 µM	3.88 µM	0.267 µM	0.372 µM and 0.686 µM	0.905 µM	3.44 µM and 2.55 µM		5.14 µM and 3.74 µM	1.72 µM	2.32 µM and 3.16 µM	16.5 µM	3.44 µM and 30.3 µM	
Cc1ccc(C(=O)NC(C)C)cc1-c1ccc(C(=O)NCC2CC2)cc1	> 25 µM	> 25 µM	> 25 µM	> 25 µM	> 25 µM	> 25 µM	> 25 µM	> 25 µM	> 25 µM	> 25 µM	> 25 µM	> 25 µM	
C[N+]1=C(/C=C/c2ccc(O)c3ncccc23)C(C)(C)c2ccccc21	3.12 µM	17.2 µM	2.35 µM	7.01 µM	2.32 µM	5.74 µM	3.26 µM	12.9 µM	2.26 µM	5.71 µM	3.43 µM	14.9 µM	
CCCCCCCC(=O)OCC/C=C/C1OC1C1OC(=O)/C=C\C=C\c2nc(oc2C)/C=C(/C)CCC2OC2C1OC(=O)NC(C)=O (stereo unspecified)	0.0766 µM	2.21 µM			0.0372 µM	0.648 µM	0.0426 µM	0.161 µM	0.0248 µM	0.0688 µM	0.0391 µM	0.232 µM	
CC(C)(CO)N1CCN(C(=S)Nc2ccccc2)CC1		> 100 µM		> 100 µM		> 100 µM		> 100 µM		> 100 µM		> 100 µM	
COc1ccc2c(c1)CCCN2c1c2ccccc2nc2ccccc12	0.812 µM	> 100 µM			0.505 µM	12.1 µM			0.35 µM	1.66 µM	3.38 µM	> 100 µM	
O=C(CC1C(=O)NN(c2ccc(Br)cc2)C1=O)c1cc(O)ccc1O (stereo unspecified)	30.6 µM	> 50 µM	7.2 µM	23.1 µM	8.3 µM	19.5 µM	10.4 µM	36.9 µM	18.6 µM	> 50 µM	15.5 µM	> 50 µM	
O=C(Nc1ccncc1)C(=O)c1cn(S(=O)(=O)c2cccc(F)c2)c2ccccc12	5.09 µM	> 100 µM	0.385 µM	4.02 µM	3.51 µM	> 100 µM	16.9 µM	> 100 µM	2.83 µM	37.7 µM	15.7 µM	> 100 µM	
Cc1cc(-c2cnn3c(NCC4CC(C)(O)C4)cc(Oc4cccnc4)nc23)ccc1C(=O)NC1CC1 (stereo unspecified)					0.395 µM	> 100 µM	> 100 µM	> 100 µM	2.22 µM	> 100 µM	1.98 µM	> 100 µM	
CCCCCCCC[C@@H](O)CC(=O)N[C@@H](CC(N)=O)C(=O)N[C@@H](CCC(N)=O)C(=O)N[C@@H](CC(=O)c1cc(C)cc(O)c1C(=O)c1c(O)cccc1O)CC(C)C	2.07 µM	> 100 µM			1.32 µM	3.9 µM	0.237 µM	0.746 µM			0.179 µM	1.26 µM	
O=c1cc(-c2ccccc2)oc2cc(OC/C(=N/O)c3ccccc3)ccc12	30.5 µM	> 50 µM	> 50 µM	> 50 µM	30.5 µM	> 50 µM	23.5 µM	> 50 µM	20.7 µM	> 50 µM	7.18 µM	19.9 µM	
NC(=O)NS(=O)(=O)c1ccc(N2N=C(C(F)(F)F)CC2c2cc(C(F)(F)F)cc(C(F)(F)F)c2)cc1 (stereo unspecified)	2.9 µM	12.8 µM	2.57 µM	7.16 µM	5.76 µM	19.1 µM	7.21 µM	21.8 µM	3.07 µM	12 µM	9.25 µM	24.8 µM	
COc1ccc(-c2nc(-c3nc4ccc(Cl)cc4[nH]3)c3ccccn23)cc1	1.89 µM	4.74 µM	2.3 µM	7.64 µM	2.85 µM	6.66 µM	1.94 µM	4.46 µM	4.27 µM	27.8 µM	2.01 µM	5.11 µM	
COc1ccc(C(=O)C#Cc2cnc(OC)nc2OC)cc1		94.4 µM	28200 µM		9800 µM		16900 µM		25600 µM		17700 µM		inactive
O=C(CCc1nnc2sc(-c3ccc(Cl)cc3Cl)nn12)c1nc2ccccc2[nH]1	0.639 µM	3.55 µM	0.382 µM	2.22 µM	0.233 µM	0.671 µM	0.663 µM	1.56 µM	1.26 µM	2.51 µM	1.29 µM	2.77 µM	
CC/C=C\C[C@H](F)C/C=C1/C(=O)C=C[C@@H]1C/C=C\CCCC(=O)O	7.76 µM	> 32.5 µM	4.06 µM	11.3 µM	3.77 µM	7.97 µM	8.8 µM	21 µM	4.86 µM	9.18 µM	12.2 µM	27.4 µM	
CC(=O)O[C@H]1C(=O)[C@@]2(C)C(C(OC(=O)c3ccccc3)[C@]3(O)CC(OC(=O)[C@H](OC(=O)CCC(=O)O)C(NC(=O)c4ccccc4)c4ccccc4)C(C)=C1C3(C)C)C1(OC(C)=O)COC1C[C@@H]2O (stereo partly specified)		> 100 µM				> 100 µM		> 100 µM		13.9 µM and 18 µM		97.1 µM and 15.4 µM	
Cc1ccc(-c2nc3nc(-c4ccccc4)nc(N4CCCNCC4)c3o2)cc1	1.59 µM	3.09 µM	1.93 µM	3.42 µM	1.76 µM	3.29 µM	1.87 µM	3.86 µM			1.73 µM	3.14 µM	
CC1(C)OC2=C(CC1Br)C(=O)C(=O)c1ccccc12 (stereo unspecified)	1.67 µM	3.03 µM	1.69 µM	3.35 µM	1 µM	3.39 µM	1.7 µM	3.12 µM	1.53 µM	2.89 µM	1.99 µM	3.45 µM	

Compound	GI50 (OVCAR-4 ovarian)	TGI (OVCAR-4 ovarian)	GI50 (MDA-MB-435)	TGI (MDA-MB-435)	GI50 (LOX IMVI melanoma)	TGI (LOX IMVI melanoma)	GI50 (NCI-H226 lung)	TGI (NCI-H226 lung)	GI50 (SK-MEL-5 melanoma)	TGI (SK-MEL-5 melanoma)	GI50 (TK-10 renal)	TGI (TK-10 renal)	outcome (OVCAR-4 ovarian)
CS(=O)(=O)c1ccc(-n2nc(C(F)(F)F)cc2OC2CCCC2)cc1	30.3 µM	> 100 µM	59.6 µM	> 100 µM	16.9 µM	54.6 µM	34 µM	> 100 µM	19.5 µM	36.2 µM	36.9 µM	93.9 µM	
COc1cc[nH]c1/C=C1\C(=O)Nc2ccc(F)c(C#CC3(O)CCNCC3)c21	0.346 µM	1.62 µM	0.0745 µM	0.504 µM	0.0645 µM	0.568 µM	0.138 µM	0.92 µM	0.24 µM	0.968 µM	0.0291 µM	0.72 µM	
CCCC(=O)OCC1OC(n2cnc3c(=S)nc[nH]c32)C(OC(=O)CCC)C1OC(=O)CCC (stereo unspecified)	0.802 µM	> 100 µM	3.55 µM	> 100 µM	2.34 µM	> 100 µM	5.77 µM	> 100 µM	5.24 µM	62.9 µM	2.78 µM	> 100 µM	
O=C(O)c1nn(-c2ccccc2-c2n[nH]c(=O)[nH]c2=O)c(=O)[nH]c1=O		> 100 µM		> 100 µM		> 100 µM		> 100 µM		> 100 µM		> 100 µM	
O=C(O)CCNC1CCCCC1	> 100 µM	> 100 µM	> 100 µM	> 100 µM	> 100 µM	> 100 µM	> 100 µM	> 100 µM	> 100 µM	> 100 µM	> 100 µM	> 100 µM	
O=S(=O)(NC1=NCCN1C(=S)SN1CCn2c1nsc2=S)c1cccc(Cl)c1	22.2 µM	54.6 µM	9.69 µM	27.7 µM	10.7 µM	22.9 µM	19 µM	55.7 µM	16.7 µM	31.9 µM	11.5 µM	28.5 µM	
O=C1c2ccccc2C(=O)N1CCc1ncc[nH]1				> 100 µM		> 100 µM				> 100 µM		> 100 µM	
Cc1ccc2c(c1)Sc1c(ccc3ccccc13)N2	> 100 µM	> 100 µM	> 100 µM	> 100 µM	8.91 µM	> 100 µM	11.8 µM	> 100 µM	12.4 µM	> 100 µM	12.8 µM	> 100 µM	
COC(=O)Nc1nc2ccc(Oc3ccc(NC(=O)Nc4cc(C(F)(F)F)ccc4F)cc3)cc2s1	7.24 µM	> 20.2 µM	7.37 µM	> 25 µM	3.65 µM	> 25 µM	> 25 µM	> 25 µM	> 25 µM	> 25 µM	> 25 µM	> 25 µM	
COc1ccc(-c2onc(N)c2-c2cc(OC)c3c(c2)OCO3)cc1	13.6 µM	> 96 µM	0.29 µM	1.13 µM	3.68 µM	> 100 µM	14.2 µM	> 100 µM	2.8 µM	> 25.6 µM	8.49 µM	> 100 µM	
O=C1CCC(N2C(=O)c3ccccc3C2=O)C(=O)N1CO (stereo unspecified)	> 100 µM	> 100 µM	> 100 µM	> 100 µM	23.6 µM	58 µM	> 100 µM	> 100 µM			> 100 µM	> 100 µM	
O=C1Nc2ccccc2C1(c1ccc(O)cc1)c1ccc(O)cc1	0.103 µM	0.961 µM	23 µM	71.3 µM	5.97 µM	35.9 µM	12.8 µM	59.7 µM	14.7 µM	29.3 µM	0.536 µM	39.6 µM	
COc1cc2ncn(-c3cc(OCc4cccs4)c(C(N)=O)s3)c2cc1OC	7.97 µM	> 25 µM	0.502 µM	1.71 µM	1.19 µM	> 19.2 µM	7.13 µM	> 25 µM	1.94 µM	> 25 µM	9.21 µM	> 25 µM	
O=C(Nc1ccc(-c2nc(N3CCOCC3)c3cccn3n2)cc1)Nc1cccnc1	0.118 µM	1.27 µM	0.225 µM	> 100 µM			0.141 µM	1.1 µM	0.196 µM	0.847 µM			
O=C(O)/C=C(\c1nc2ccc([N+](=O)[O-])cc2[nH]1)c1cc(Cl)ccc1O	2.72 µM	36.6 µM	2.84 µM	34.5 µM	2.41 µM	11.1 µM	2.32 µM	46.4 µM	1.1 µM	4.06 µM	4.11 µM	15.4 µM	
C#CCNC(=O)c1cccc2c1cc(C)n2-c1nc2c(c(NCc3ccccc3)n1)CCCC2	0.022 µM	0.0709 µM	0.0235 µM	0.0656 µM	0.0104 µM	0.0256 µM	0.017 µM	0.0491 µM	0.00886 µM	0.0235 µM	0.0345 µM	0.111 µM	
Nc1nc(N(Cc2ccccc2)c2ccccc2)c2cn[nH]c2n1	6.37 µM	> 100 µM	2.63 µM	> 100 µM	3.91 µM	> 100 µM	6.35 µM	> 100 µM	3.04 µM	> 100 µM	4.72 µM	> 100 µM	
O=C1c2cccc([N+](=O)[O-])c2C(=O)N1c1ncn[nH]1		> 100 µM		> 100 µM		> 100 µM		> 100 µM		> 100 µM		> 100 µM	
CCCn1c(=S)sc2c1nc(C)n1c(Nc3ccccc3)nnc21	3.46 µM	> 100 µM	3.22 µM	24.1 µM	3.67 µM	> 100 µM	4.98 µM	23.6 µM	3.31 µM	11.2 µM	3.2 µM	84 µM	
N#CSC1CCCCNC1=O (stereo unspecified)				34.8 µM		> 100 µM		25.7 µM				30.7 µM	
O=C1CCC2(c3ccccc3)Nc3ccncc3N12 (stereo unspecified)		> 10 µM		> 10 µM		> 10 µM		> 10 µM				> 10 µM	
